Test system: 616215-338-R-J1-PDC tumor spheroids, viability
Test: Anticancer human tumor 616215-338-R-J1-PDC patient-derived colon adenocarcinoma cell line growth inhibition [GQUAD]
Conditions: spheroids with HUVEC and MSC; for IC50: curve of first compound; for viability, T/C: stronger effect = lower value
Excerpt: DNA G-quadruplex Stabilizer Agents in Combinations in Complex Spheroids
A high-throughput screen of multi-cell type tumor spheroids was designed to identify active combinations of DNA G-quadruplex stabilizer agents and targeted small molecules. Complex spheroids include a stromal component modeled by human endothelial cells (HUVEC) and fibroblasts modeled by human mesenchymal stem cells (MSCs). The concentration ranges selected for each drug and investigational agent were based upon clinically achievable concentrations if the clinical Cmax of the agent was known.
Compounds. The drugs and investigational agents: pidnarulex (CX-5461; NSC782164), APTO-253 (NSC789042), BRACO-19 (NSC847499), peposertib (NSC802822), ceralasertib (NSC780249), elimusertib (NSC800525), camonsertib (NSC841442), AZD-1390 (NSC803789), olaparib (NSC753686), talazoparib (NSC767125), ART-558 (NSC835418), sotorasib (NSC818433), MRTX-1133 (NSC836407), SN-38 (NSC673596), topotecan (NSC609699), etoposide (NSC141540), doxorubicin (NSC123127), gemcitabine (NSC613327), 5-fluorouracil (NSC19893), paclitaxel (NSC125973), vemurafenib (NSC761431), panobinostat (NSC761190), R-306465 (JNJ-16241199; NSC773264), adavosertib (NSC754352), TP-3654 (NSC805149), carboplatin (NSC241240), KSQ-4279 (NSC840948), and staurosporine (NSC755774) were obtained from the National Cancer Institute (NCI) Developmental Therapeutics Program Chemical Repository (34). The FDA-approved anticancer drug set is available from the NCI Developmental Therapeutics Program. […] The stock solutions were prepared in dimethyl sulfoxide (DMSO, Sigma-Aldrich, St. Louis, MO, cat. D2650) at 800-fold the tested concentration and stored at -70 degrees C prior to their use. All drugs and investigational agents were tested over a range starting from a high concentration at or near the clinical Cmax and decreasing in half-log increments. If the clinical Cmax for an agent had not been determined, the highest concentration tested was 10 microM.
2.3 Cell Culture. All cells were maintained in an incubator at 37 degrees C and 5% CO2 with 95% humidity. The PDC lines were cultured according to standard operating procedures established by the NCI PDMR. All PDCs were thawed and cultured in Matrigel-coated flasks prepared with a working solution of 1X Ham's F-12 nutrient mix, without supplementation (Invitrogen, cat. 11765054), 100 U/mL penicillin-streptomycin (Invitrogen, cat. 15140122), and 2.5% Matrigel (Corning Inc., cat. 354248) for the first three passages. The 857933-349-R-J2-PDC line was cultured in 6C/Colon 1B media, which includes advanced DMEM/F-12 (Thermo Fisher Scientific, cat. 12634028), 10 mM HEPES (Thermo Fisher Scientific, cat. 15630080), 1X GlutaMAX supplement (Thermo Fisher Scientific, cat. 35050061), 0.1 mg/mL primocin (InvivoGen, cat. ant-pm-2), 10% defined fetal bovine serum, heat inactivated (HyClone Laboratories Inc., cat. SH30070.03HI), 50% L-WRN conditioned media (ATCC, cat. CRL-3276), 1.25 mM N-Acetyl-L-cysteine (Sigma-Aldrich, cat. A9165), 10 mM nicotinamide (Sigma-Aldrich, cat. N0636), 1X B-27 supplement (Thermo Fisher Scientific, cat. 17504044), 1X N-2 supplement (Thermo Fisher Scientific, cat. 17502048), 10 microM Y-27632 dihydrochloride (Tocris Bioscience, cat. 1254), and 50 ng/mL human EGF recombinant protein (Thermo Fisher Scientific, cat. PHG0311). The 485176-168-R4-J1-PDC line was cultured in Panc media, which includes all 6C/Colon 1B media components plus 100 ng/mL human FGF-10 (Thermo Fisher Scientific, cat. 100-26), 500 nM SB-431542 (Selleckchem, cat. S1067), and gastrin (Tocris, cat. 3006).
[…]

[1] = second compound 0.0316 µM, first compound 0.0316 µM
[2] = second compound 0.0316 µM, first compound 0.1 µM
[3] = second compound 0.0316 µM, first compound 0.316 µM
[4] = second compound 0.0316 µM, first compound 1 µM
[5] = second compound 0.0316 µM, first compound 3.16 µM
[6] = second compound 0.0316 µM, first compound 10 µM
[7] = second compound 0.1 µM, first compound 0.0316 µM
[8] = second compound 0.1 µM, first compound 0.1 µM
[9] = second compound 0.1 µM, first compound 0.316 µM
[10] = second compound 0.1 µM, first compound 1 µM
[11] = second compound 0.1 µM, first compound 3.16 µM
[12] = second compound 0.1 µM, first compound 10 µM
[13] = second compound 0.316 µM, first compound 0.0316 µM
[14] = second compound 0.316 µM, first compound 0.1 µM
[15] = second compound 0.316 µM, first compound 0.316 µM
[16] = second compound 0.316 µM, first compound 1 µM
[17] = second compound 0.316 µM, first compound 3.16 µM
[18] = second compound 0.316 µM, first compound 10 µM
[19] = second compound 1 µM, first compound 0.0316 µM
[20] = second compound 1 µM, first compound 0.1 µM
[21] = second compound 1 µM, first compound 0.316 µM
[22] = second compound 1 µM, first compound 1 µM
[23] = second compound 1 µM, first compound 3.16 µM
[24] = second compound 1 µM, first compound 10 µM
[25] = second compound 3.16 µM, first compound 0.0316 µM
[26] = second compound 3.16 µM, first compound 0.1 µM
[27] = second compound 3.16 µM, first compound 0.316 µM
[28] = second compound 3.16 µM, first compound 1 µM
[29] = second compound 3.16 µM, first compound 3.16 µM
[30] = second compound 3.16 µM, first compound 10 µM
[31] = second compound 10 µM, first compound 0.0316 µM
[32] = second compound 10 µM, first compound 0.1 µM
[33] = second compound 10 µM, first compound 0.316 µM
[34] = second compound 10 µM, first compound 1 µM
[35] = second compound 10 µM, first compound 3.16 µM
[36] = second compound 10 µM, first compound 10 µM
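Note: spheroids exposed to agents for 7 days before readout.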
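Throughout, for viability, T/C: percent viability relative to DMSO vehicle control wells taken as 100%.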

C#Cc1c(F)ccc2cc(O)cc(-c3ncc4c(N5CC6CCC(C5)N6)nc(OCC56CCCN5CC(F)C6)nc4c3F)c12 (centres undefined) + Cc1[nH]c2ccc(F)cc2c1-c1nc2c3cccnc3c3ncccc3c2[nH]1
IC50 (second compound 0.0316 µM): > 10 µM
IC50 (second compound 0.1 µM): > 10 µM
IC50 (second compound 0.316 µM): > 10 µM
IC50 (second compound 1 µM): > 10 µM
IC50 (second compound 3.16 µM): 8.11 µM
IC50 (second compound 10 µM): 6.03 µM
viability, T/C [1]: 104%
viability, T/C [2]: 109%
viability, T/C [3]: 103%
viability, T/C [4]: 111%
viability, T/C [5]: 97.4%
viability, T/C [6]: 73.3%
viability, T/C [7]: 107%
viability, T/C [8]: 111%
viability, T/C [9]: 126%
viability, T/C [10]: 113%
viability, T/C [11]: 96%
viability, T/C [12]: 78.4%
viability, T/C [13]: 113%
viability, T/C [14]: 96.9%
viability, T/C [15]: 124%
viability, T/C [16]: 116%
viability, T/C [17]: 106%
viability, T/C [18]: 56.9%
viability, T/C [19]: 105%
viability, T/C [20]: 99.9%
viability, T/C [21]: 97.9%
viability, T/C [22]: 108%
viability, T/C [23]: 83.8%
viability, T/C [24]: 64.4%
viability, T/C [25]: 102%
viability, T/C [26]: 106%
viability, T/C [27]: 116%
viability, T/C [28]: 94.1%
viability, T/C [29]: 82.6%
viability, T/C [30]: 42.9%
viability, T/C [31]: 97.2%
viability, T/C [32]: 101%
viability, T/C [33]: 110%
viability, T/C [34]: 82.1%
viability, T/C [35]: 60.8%
viability, T/C [36]: 42.4%

CCCS(=O)(=O)Nc1ccc(F)c(C(=O)c2c[nH]c3ncc(-c4ccc(Cl)cc4)cc23)c1F + Cc1[nH]c2ccc(F)cc2c1-c1nc2c3cccnc3c3ncccc3c2[nH]1
IC50 (second compound 0.0316 µM): 5.54 µM
IC50 (second compound 0.1 µM): 5.28 µM
IC50 (second compound 0.316 µM): 5.62 µM
IC50 (second compound 1 µM): 5.42 µM
IC50 (second compound 3.16 µM): 5.19 µM
IC50 (second compound 10 µM): 4.76 µM
viability, T/C [1]: 105%
viability, T/C [2]: 96.7%
viability, T/C [3]: 93.8%
viability, T/C [4]: 99.1%
viability, T/C [5]: 94.9%
viability, T/C [6]: 2.78%
viability, T/C [7]: 93.6%
viability, T/C [8]: 107%
viability, T/C [9]: 102%
viability, T/C [10]: 102%
viability, T/C [11]: 87.6%
viability, T/C [12]: 3.08%
viability, T/C [13]: 104%
viability, T/C [14]: 98.7%
viability, T/C [15]: 99%
viability, T/C [16]: 98%
viability, T/C [17]: 96.5%
viability, T/C [18]: 3.41%
viability, T/C [19]: 109%
viability, T/C [20]: 106%
viability, T/C [21]: 89%
viability, T/C [22]: 96.3%
viability, T/C [23]: 91.5%
viability, T/C [24]: 2.83%
viability, T/C [25]: 96.7%
viability, T/C [26]: 91.4%
viability, T/C [27]: 101%
viability, T/C [28]: 95.2%
viability, T/C [29]: 86.6%
viability, T/C [30]: 1.44%
viability, T/C [31]: 101%
viability, T/C [32]: 92.3%
viability, T/C [33]: 101%
viability, T/C [34]: 93.5%
viability, T/C [35]: 76.8%
viability, T/C [36]: 1.37%

From PubChem BioAssay AID2060493 (Molecular Pharmacology Branch, DTP, NCI, 2025)
